Measured values from patent publication US8017786B2, “Substituted β-phenyl-α-hydroxy-propanoic acid, synthesis method and use thereof” (Northwest University, priority 2006, dated 2011).

Columns and labels:
Type in all cases: in vivo, rat
[1] = test system: creatine kinase isoenzyme (CK-MB); assay: Serum CK-MB activity in rats with myocardial ischemia; conditions: for CK-MB: serum, 24 h after ligation
Procedure: (§1) At 0.5 h after the rats of these groups were administered intragastrically, the standard II lead electrocardiogram (before modeling) was recorded, and the height of ST-T segment was measured. The rats of sham operation group were then subjected to coronary artery braid without ligation, and the rats of other groups were subjected to coronary artery ligation in accordance with the following method to establish cute myocardial ischemia models. The rats were subjected to etherization, fixed at supine position, and their normal electrocardiograms (before modeling) were recorded. The skin of left thorax was incised under aseptic conditions, the 4th intercostal muscles were isolated in blunt way, the heart was extruded by light pressure to the right thorax, the left anterior descending coronary artery was ligated at a position 2˜3 mm departing from the left coronary artery origin and between the pulmonary conus and the left auricle of heart, then the heart was sent back to thorax cavity immediately and sutured the incision. Penicillin was smeared topically for the prevention of infections. After operation, the electrocardiogram of postischemia was recorded immediately (at 0 min after modeling), and the height of ST-T segment was measured.

creatine kinase (CK) = assay: Serum CK activity in rats with myocardial ischemia; conditions: for CK: serum, 24 h after ligation
Procedure: as §1

Bcl-2 = assay: Immunohistochemistry protein expression in I/R myocardial tissue: Bcl-2; conditions: for Bcl-2 protein expression, OD value: 5 days, ischemia 30 min, reperfusion 2 h
Procedure: (§2) 52 SD rats having a body weight of 220±20 g were randomly divided into model control group, salviannic acid injection group (in 1 mL/kg), and group of bornyl β-(3,4-dihydroxylphenyl)-α-hydroxylpropionate ester at a small, middle and large dose (ip 5, 15, 35 mg/kg). The rats of the normal group and the model control group were ip administered with equal-volume of physiologic saline. The rats of all groups were administered for consecutive 5 days. When the rats were administered for the last time, they were simultaneously anesthetized with 1.5% pentobarbital sodium (ip 45 mg/kg), then a catheter was inserted into the right carotid artery, and connected via a transducer to an eight-channeled physiological recorder. Tracheal cannula was performed, and the ventilation rate was maintained at 60 times/min. The chest was opened, a 6/0 suture was used to form a loop at a site 1˜2 mm from the root of the anterior descending coronary artery, and a plastic pipe was introduced through the loop, then the loop was tightened up. The change of electrocardiogram was observed. An increase or decrease of ST indicated the success of ligation. The color of the myocardial tissue below the ligation suture became darker. 30 minutes later, the plastic pipe was pulled out to allow coronary artery blood flowing again and cause hyperemia of local tissue during reperfusion. For the groups subjected to ischemia for 30 min and reperfusion for 30 min, the myocardial infarction areas were recorded before the test, after ischemia for 1 min and 30 min, and after reperfusion for 30 min; for the groups subjected to ischemia for 30 min and reperfusion for 2 h, cardiac tissue samples were taken and fixed using 10% formalin, embedded with paraffin, serially sliced into sections with a thickness of 4 μm, and separately subjected to immunohistochemistry tests; the rats of the sham operation group were subjected only to the introduction of suture but their coronary arteries were not ligated.
(§3) Standard immunohistochemistry ABC and SP methods were employed for staining. Bax: anti-rabbit polyclonal antibody (Santa CruzBio. Inc.) at a dilution of 1:200; […]: anti-rabbit polyclonal antibody (TBD Tianjin Biotechnological Center). At a dilution of […]; caspase-3: anti-rabbit polyclonal antibody (Normarkers Fromont, Calif.), at a dilution of 1:200; MMP-2: anti-murine monoclonal antibody (NormarkersFromont, Calif.) at a dilution of 1:200; PPARγ: anti-caprine polyclonal antibody (Santa Cruz Bio. Inc.), at a dilution of 1:500. The specific procedures were performed in accordance with the instructions of the ABC and SP kits, DAB was used for color development, and neutral resin was used for mounting. PBS was used instead of the first antibody as a negative control. Cells with positive expression of the test polypeptides were of brown-yellow color, with MMP-2 protein being present in acytoplasm, Bcl-2 expressed in nuclear membrane and cytoplasm, Bax mainly in cytoplasm and partially in nucleus, and caspase-3 mainly in nucleus and partially in cytoplasm. CMIAS image analysis system was used for random selection of fields of slices and automatic selection of sites for analysis, and statistic analysis was performed by using mean optical density values or integral optical density values of the obtained myocardial tissue slices.

MMP-2 = assay: Immunohistochemistry protein expression in I/R myocardial tissue: MMP-2; conditions: for MMP-2 protein expression, OD value: 5 days, ischemia 30 min, reperfusion 2 h
Procedure: as §2, §3

[2] = test system: rats with acute myocardial ischemia; assay: ST-T segment of ECG in rats with myocardial ischemia
Procedure: as §1

caspase-3 = assay: Immunohistochemistry protein expression in I/R myocardial tissue: caspase-3; conditions: for Caspase-3 protein expression, OD value: 5 days, ischemia 30 min, reperfusion 2 h
Procedure: as §2, §3

malondialdehyde (MDA) = assay: Serum MDA content in rats with myocardial ischemia; conditions: for MDA: serum, 24 h after ligation
Procedure: as §1

Bax = assay: Immunohistochemistry protein expression in I/R myocardial tissue: Bax; conditions: for Bax protein expression, OD value: 5 days, ischemia 30 min, reperfusion 2 h
Procedure: as §2, §3

[3] = 10 mg/kg intragastric, 0 min after modeling
[4] = 10 mg/kg intragastric, 24 h after modeling
[5] = 20 mg/kg intragastric, 0 min after modeling
[6] = 20 mg/kg intragastric, 24 h after modeling
[7] = 40 mg/kg intragastric, 0 min after modeling
[8] = 40 mg/kg intragastric, 24 h after modeling

In the case of `CC1(C)C2CCC1(C)C(OC(=O)C(O)Cc1ccc(O)c(O)c1)C2` (stereo not drawn) [bornyl salvianate ester, bornyl β-(3,4-dihydroxylphenyl)-α-hydroxylpropionate ester], the CK-MB ([1]; 10 mg/kg intragastric) is reported as 1267.0 ± 274.4 U/L, the CK-MB ([1]; 20 mg/kg intragastric) is reported as 1074.1 ± 116.8 U/L and the CK-MB ([1]; 40 mg/kg intragastric) is reported as 906.3 ± 99.9 U/L. For the same molecule, the “activity of creatine kinase isoenzyme (CK-MB) (in words)” value ([1]; all dose groups, 24 h later) was “decreased”, the CK (creatine kinase (CK); 10 mg/kg intragastric) was 1214.2 ± 160.2 U/L and the CK (creatine kinase (CK); 20 mg/kg intragastric) was 894.5 ± 176.3 U/L. For the same molecule, the CK (creatine kinase (CK); 40 mg/kg intragastric) was 778.0 ± 177.1 U/L, the “activity of creatine kinase (CK) (in words)” value (creatine kinase (CK); all dose groups, 24 h later) was “decreased” and the “Bcl-2 protein expression, OD value” (Bcl-2; 5 mg/kg ip) was 0.15 ± 0.03. The “Bcl-2 protein expression, OD value” (Bcl-2; 15 mg/kg ip) was 0.15 ± 0.06, the “Bcl-2 protein expression, OD value” (Bcl-2; 35 mg/kg ip) was 0.21 ± 0.04 and the “expression of Bcl-2 protein (in words)” value (Bcl-2; myocardial cells I/R) was “increase the expression of Bcl-2 protein”. The “MMP-2 protein expression, OD value” (MMP-2; 5 mg/kg ip) was 0.14 ± 0.05, the “MMP-2 protein expression, OD value” (MMP-2; 15 mg/kg ip) was 0.14 ± 0.03 and the “MMP-2 protein expression, OD value” (MMP-2; 35 mg/kg ip) was 0.11 ± 0.03. For the same molecule, the “MMP-2 protein (in words)” value (MMP-2; myocardial I/R) was “decrease of MMP-2 protein”, the “Elevation of ST-T segment” value [2, 3] was 0.24 ± 0.24 mV and the “Elevation of ST-T segment, Change rate” value [2, 3] was 95.00 ± 78.34%. The “Elevation of ST-T segment” value [2, 4] was 0.17 ± 0.09 mV, the “Elevation of ST-T segment, Change rate” value [2, 4] was 49.00 ± 36.27% and the “Elevation of ST-T segment” value ([2]; 10 mg/kg intragastric, before modeling) was 0.21 ± 0.06 mV. For the same molecule, the “Elevation of ST-T segment” value [2, 5] was 0.13 ± 0.16 mV, the “Elevation of ST-T segment, Change rate” value [2, 5] was 91.61 ± 116.85% and the “Elevation of ST-T segment” value [2, 6] was 0.11 ± 0.10 mV. For the same molecule, the “Elevation of ST-T segment, Change rate” value [2, 6] was 60.77 ± 39.69%, the “Elevation of ST-T segment” value ([2]; 20 mg/kg intragastric, before modeling) was 0.17 ± 0.07 mV and the “Elevation of ST-T segment” value [2, 7] was 0.36 ± 0.17 mV. For the same molecule, the “Elevation of ST-T segment, Change rate” value [2, 7] was 103.87 ± 148.26%, the “Elevation of ST-T segment” value [2, 8] was 0.18 ± 0.07 mV and the “Elevation of ST-T segment, Change rate” value [2, 8] was 29.01 ± 18.99 %. The “Elevation of ST-T segment” value ([2]; 40 mg/kg intragastric, before modeling) was 0.21 ± 0.06 mV, the “Caspase-3 protein expression, OD value” (caspase-3; 5 mg/kg ip) was 0.35 ± 0.14 and the “Caspase-3 protein expression, OD value” (caspase-3; 15 mg/kg ip) was 0.32 ± 0.08. For the same molecule, the “Caspase-3 protein expression, OD value” (caspase-3; 35 mg/kg ip) was 0.20 ± 0.07, the “expression of caspase-3 protein (in words)” value (caspase-3; myocardial cells I/R) was “reduce the expression of Bax and caspase-3 proteins” and the MDA (malondialdehyde (MDA); 10 mg/kg intragastric) was 21.69 ± 27.94 nmol/mL. For the same molecule, the MDA (malondialdehyde (MDA); 20 mg/kg intragastric) was 10.60 ± 11.156 nmol/mL, the MDA (malondialdehyde (MDA); 40 mg/kg intragastric) was 9.43 ± 6.57 nmol/mL and the “serum MDA content (in words)” value (malondialdehyde (MDA); middle and large dose groups, no significant difference from model control) was “decrease tendency”. For the same molecule, the “Bax protein expression, OD value” (Bax; 5 mg/kg ip) was 0.12 ± 0.03, the “Bax protein expression, OD value” (Bax; 15 mg/kg ip) was 0.09 ± 0.05 and the “Bax protein expression, OD value” (Bax; 35 mg/kg ip) was 0.07 ± 0.03. The “expression of Bax protein (in words)” value (Bax; myocardial cells I/R) was “reduce the expression of Bax and caspase-3 proteins”.
